Data set [1] has as its target T1, recombinant human plasminogen activator inhibitor-1 (PAI-1) (Homo sapiens, UniProt P05121).
T1 construct: purchased Molecular Innovations, Royal Oak, Mich
As to the kind of experiment: Primary Screen for the PAI-1 Inhibition (residual tPA activity, Spectrozyme-tPA chromogenic substrate). To be noted: 25 μM test compound. The format is biochemical. How it is done:
Primary Screen for the PAI-1 Inhibition
Test compounds are dissolved in DMSO at a final concentration of 10 mM, then diluted 100× in physiologic buffer. The inhibitory assay is initiated by the addition of the test compound (1-100 μM final concentration, maximum DMSO concentration of 0.2%) in a pH 6.6 buffer containing 140 nM recombinant human plasminogen activator inhibitor-1 (PAI-1; Molecular Innovations, Royal Oak, Mich.). Following a 1 hour incubation at room temperature, 70 nM of recombinant human tissue plasminogen activator (tPA) is added, and the combination of the test compound, PAI-1 and tPA is incubated for an additional 30 minutes. Following the second incubation, Spectrozyme-tPA (American Diagnostica, Greenwich, Conn.), a chromogenic substrate for tPA, is added and absorbance read at 405 nm at 0 and 60 minutes. Relative PAI-1 inhibition is equal to the residual tPA activity in the presence of the test compound and PAI-1. Control treatments include the complete inhibition of tPA by PAI-1 at the molar ratio employed (2:1), and the absence of any effect of the test compound on tPA alone.

The source of these data is patent US7368471B2, “Substituted indole acid derivatives as inhibitors of plasminogen activator inhibitor-1 (PAI-1)” (Wyeth, priority 2001, dated 2008).

Usually inhibition stands for the drop in the measured response relative to a control, in per cent. A word on the melting point: it is the temperature of the solid-liquid transition.

T1 sequence (P05121 24-402): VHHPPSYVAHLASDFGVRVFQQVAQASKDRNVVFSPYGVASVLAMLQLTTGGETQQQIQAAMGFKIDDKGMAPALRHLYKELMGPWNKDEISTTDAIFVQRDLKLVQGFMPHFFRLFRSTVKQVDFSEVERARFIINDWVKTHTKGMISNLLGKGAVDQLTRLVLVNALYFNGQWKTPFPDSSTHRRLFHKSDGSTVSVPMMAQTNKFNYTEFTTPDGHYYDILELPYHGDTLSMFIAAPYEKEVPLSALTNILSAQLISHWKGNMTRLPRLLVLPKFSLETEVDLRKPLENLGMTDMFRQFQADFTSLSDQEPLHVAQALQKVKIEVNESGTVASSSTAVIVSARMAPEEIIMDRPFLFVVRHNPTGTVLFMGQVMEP

Take `Cn1cc(C(=O)C(=O)O)c2ccc(-c3ccc(OC(F)(F)F)cc3)cc21` [Example 1, {1-Methyl-6-[4-(trifluoromethoxy)phenyl]-1H-indol-3-yl}(oxo)acetic acid]: the melting point is 233 to 235 °C (dec.). Besides, the inhibition at 25 µM in data set [1] was found to be 15%. The like results for `CCn1cc(C(=O)C(=O)O)c2ccc(-c3ccc(OC(F)(F)F)cc3)cc21` [Example 3, {1-Ethyl-6-[4-(trifluoromethoxy)phenyl]-1H-indol-3-yl}(oxo)acetic acid] were, in that order, 204 to 205 °C and 24%. The matching figures for `CCn1cc(C(=O)C(=O)O)c2ccc(-c3ccc(C(F)(F)F)cc3)cc21` [Example 4, {1-Ethyl-6-[4-(trifluoromethyl)phenyl]-1H-indol-3-yl}(oxo)acetic acid]: 247 to 248 °C and 16%. For the molecule `O=C(O)C(=O)c1cn(Cc2ccccc2)c2cc(-c3ccc(C(F)(F)F)cc3)ccc12` [Example 6, {1-Benzyl-6-[4-(trifluoromethyl)phenyl]-1H-indol-3-yl}(oxo)acetic acid], the melting point is 223 to 224 °C (dec.). Also, the inhibition at 25 µM in data set [1] was determined as 27%.

As to `CC(C)(C)c1ccc(Cn2cc(C(=O)C(=O)O)c3ccc(-c4ccc(C(F)(F)F)cc4)cc32)cc1` [Example 7, {1-[4-(tert-Butyl)benzyl]-6-[4-(trifluoromethyl)phenyl]-1H-indol-3-yl}(oxo)acetic acid], the melting point was 205 to 206 °C (dec.). Also, the inhibition at 25 µM in data set [1] came to 26%.

With `O=C(O)C(=O)c1cn(Cc2ccccc2)c2ccc(-c3ccc(C(F)(F)F)cc3)cc12` [Example 9, {1-Benzyl-5-[4-(trifluoromethyl)phenyl]-1H-indol-3-yl}(oxo)acetic acid], the melting point is 201 to 202 °C (dec.). The inhibition at 25 µM in data set [1] is 40%. Turning to `Cn1cc(C(=O)C(=O)O)c2ccc(-c3ccc(C(C)(C)C)cc3)cc21` [Example 10, {6-[4-(tert-Butyl)phenyl]-1-methyl-1H-indol-3-yl}(oxo)acetic acid], the melting point is 201 to 202 °C (dec.). In addition, the inhibition at 25 µM in data set [1] was determined as 33%.

As for `CC(=O)c1ccc(-c2ccc3c(c2)c(C(=O)C(=O)O)cn3Cc2ccccc2)cc1` [Example 11, [5-(4-Acetylphenyl)-1-benzyl-1H-indol-3-yl](oxo)acetic acid], the melting point was 213 to 214 °C (dec.). The inhibition at 25 µM in data set [1] was found to be 19%. Regarding `O=C(O)C(=O)c1cn(Cc2ccccc2)c2cccc(-c3ccc(C(F)(F)F)cc3)c12` [Example 13, {1-Benzyl-4-[4-(trifluoromethyl)phenyl]-1H-indol-3-yl}(oxo)acetic acid], the melting point fell in the range of 183 to 184 °C. For the same molecule, the inhibition at 25 µM in data set [1] was 27%. `CC(C)(C)c1ccc(-c2ccc3c(c2)c(C(=O)C(=O)O)cn3Cc2ccccc2)cc1` [Example 14, {1-Benzyl-5-[4-(tert-butyl)phenyl]-1H-indol-3-yl}(oxo)acetic acid]: the melting point is 210 to 211 °C (dec.). The inhibition at 25 µM in data set [1] was 55%. Take `O=C(O)C(=O)c1cn(Cc2ccccc2)c2cccc(-c3ccc(OC(F)(F)F)cc3)c12` [Example 20, {1-Benzyl-4-[4-(trifluoromethoxy)phenyl]-1H-indol-3-yl}(oxo)acetic acid]: the inhibition at 25 µM in data set [1] came out at 14%. Turning to `O=C(O)C(=O)c1cn(Cc2ccccc2)c2cc(-c3ccccc3)ccc12` [Example 23, (1-Benzyl-6-phenyl-1H-indol-3-yl)(oxo)acetic acid], the inhibition at 25 µM in data set [1] turned out to be 40%. As to `O=C(O)C(=O)c1cn(Cc2ccccc2)c2ccc(-c3ccccc3)cc12` [Example 24, (1-Benzyl-5-phenyl-1H-indol-3-yl)(oxo)acetic acid], the melting point was 193 to 195 °C (dec.). The inhibition at 25 µM in data set [1] was determined as 47%.

In the case of `CCCCn1cc(C(=O)C(=O)O)c2cc(-c3cccc(OC)c3)ccc21` [Example 31, [1-Butyl-5-(3-methoxyphenyl)-1H-indol-3-yl](oxo)acetic acid], the melting point was 108 to 109 °C. The inhibition at 25 µM in data set [1] amounted to 32%.

On to `CCCCn1cc(C(=O)C(=O)O)c2cc(-c3ccc(OC)cc3)ccc21` [Example 32, [1-Butyl-5-(4-methoxyphenyl)-1H-indol-3-yl](oxo)acetic acid], for which the melting point was in the range of 172 to 173 °C. Besides, the inhibition at 25 µM in data set [1] stood at 28%. `CC(C)(C)c1ccc(Cn2cc(C(=O)C(=O)O)c3cc(-c4ccc(Cl)cc4)ccc32)cc1` [Example 38, [1-(4-tert-Butylbenzyl)-5-(4-chlorophenyl)-1H-indol-3-yl](oxo)acetic acid] had a melting point of 183 to 184 °C. In addition, the inhibition at 25 µM in data set [1] turned out to be 14%. The matching figures for `CC(=O)OCc1c(C(=O)C(=O)O)c2cc(-c3ccc(OC(F)(F)F)cc3)ccc2n1Cc1ccc(C)cc1` [Example 41, {2-[(Acetyloxy)methyl]-1-(4-methylbenzyl)-5-[4-(trifluoromethoxy)phenyl]-1H-indol-3-yl}(oxo)acetic acid]: 79 to 80 °C and 13%. Take `O=C(O)C(=O)c1cn(C2CCCC2)c2ccc(-c3cccc(Cl)c3)cc12` [Example 45, [5-(3-Chlorophenyl)-1-cyclopentyl-1H-indol-3-yl]-oxo-acetic acid]: the inhibition at 25 µM in data set [1] was 45%. The same measure, in the same setting: under `O=C(O)C(=O)c1cn(CC2CCC2)c2ccc(-c3cccc(Cl)c3)cc12` [Example 46, [5-(3-chlorophenyl)-1-(cyclobutylmethyl)-1H-indol-3-yl](oxo)acetic acid] stands 45%; under `O=C(O)C(=O)c1cn(C2CCCC2)c2ccc(-c3ccc(C(F)(F)F)cc3)cc12` [Example 49, [5-(4-trifluoromethylphenyl)-1-(cyclopentyl)-1H-indol-3-yl](oxo)acetic acid], 54%. `O=C(O)C(=O)c1cn(CC2CCC2)c2ccc(-c3ccc(C(F)(F)F)cc3)cc12` [Example 50, [5-(4-trifluoromethylphenyl)-1-(cyclobutylmethyl)-1H-indol-3-yl](oxo)acetic acid]: in data set [1], the inhibition at 25 µM worked out at 59%. The same measure, in the same setting: under `CC1CCC(n2cc(C(=O)C(=O)O)c3cc(-c4ccc(C(F)(F)F)cc4)ccc32)C1` (stereo not shown) [Example 51, [5-(4-trifluoromethylphenyl)-1-(3-methylcyclopentyl)-1H-indol-3-yl](oxo)acetic acid] stands 58%; under `O=C(O)C(=O)c1cn(CC2CCCCC2)c2ccc(-c3ccc(C(F)(F)F)cc3)cc12` [Example 52, [5-(4-trifluoromethylphenyl)-1-(cyclohexylmethyl)-1H-indol-3-yl](oxo)acetic acid], 59%. With `O=C(O)C(=O)c1cn(CCCC2CCCC2)c2ccc(-c3ccc(C(F)(F)F)cc3)cc12` [Example 53, [5-(4-trifluoromethylphenyl)-1-(cyclopentylpropyl)-1H-indol-3-yl](oxo)acetic acid], the inhibition at 25 µM in data set [1] is 67%. For `O=C(O)C(=O)c1cn(C2CCCC2)c2ccc(-c3cccc(C(F)(F)F)c3)cc12` [Example 54, [5-(3-trifluoromethylphenyl)-1-(cyclopentyl)-1H-indol-3-yl](oxo)acetic acid], in data set [1], the inhibition at 25 µM amounted to 46%. On the same count and under the same terms, under `O=C(O)C(=O)c1cn(CC2CCC2)c2ccc(-c3cccc(C(F)(F)F)c3)cc12` [Example 55, [5-(3-trifluoromethylphenyl)-1-(cyclobutylmethyl)-1H-indol-3-yl](oxo)acetic acid] stands 51%. Consider `CC1CCC(n2cc(C(=O)C(=O)O)c3cc(-c4cccc(C(F)(F)F)c4)ccc32)C1` (stereo not shown) [Example 56, [5-(3-trifluoromethylphenyl)-1-(3-methylcyclopentyl)-1H-indol-3-yl](oxo)acetic acid], for which the inhibition at 25 µM in data set [1] amounted to 54%.

In the case of `O=C(O)C(=O)c1cn(CC2CCCCC2)c2ccc(-c3cccc(C(F)(F)F)c3)cc12` [Example 57, [5-(3-trifluoromethylphenyl)-1-(cyclohexylmethyl)-1H-indol-3-yl](oxo)acetic acid], in data set [1], the inhibition at 25 µM is 57%. For `O=C(O)C(=O)c1cn(CCCC2CCCC2)c2ccc(-c3cccc(C(F)(F)F)c3)cc12` [Example 58, [5-(3-trifluoromethylphenyl)-1-(cyclopentylpropyl)-1H-indol-3-yl](oxo)acetic acid], the inhibition at 25 µM in data set [1] came out at 61%. For the molecule `COc1ccc(-c2ccc3c(c2)c(C(=O)C(=O)O)cn3CC2CCCCC2)cc1` [Example 59, [5-(4-methoxyphenyl)-1-(cyclohexylmethyl)-1H-indol-3-yl](oxo)acetic acid], the inhibition at 25 µM in data set [1] is 58%.

Take `Cn1cc(CC(=O)O)c2cc(-c3ccc(C(F)(F)F)cc3)ccc21` [Example 63, [1-Methyl-5-(4-trifluoromethyl-phenyl)-1H-indol-3-yl]-acetic acid]: the melting point is 167 to 168 °C. `Cc1cccc(-c2ccc3c(c2)c(CC(=O)O)cn3Cc2ccc(C(C)(C)C)cc2)c1` [Example 64, 2-[1-[4-(tert-Butyl)benzyl]-5-(3-methylphenyl)-1H-indol-3-yl]-acetic acid] returned a melting point of 91 to 92 °C. `Cc1ccc(Cn2cc(CC(=O)O)c3cc(-c4ccc(OC(F)(F)F)cc4)ccc32)cc1` [Example 65, {1-(4-Methylbenzyl)-5-[4-(trifluoromethoxy)phenyl]-1H-indol-3-yl}acetic acid] had a melting point of 62 to 63 °C.

In the case of “[5-(3-chlorophenyl)-1-(3-methylcyclopropyl)-1H-indol-3-yl](oxo)acetic acid [Example 47]”, the “% Inhibition @ 25 μM” value in data set [1] is 51%.
